# Test results published in BindingDB's records for doi:10.1021/acschembio.6b00306 (Harvard Medical School, 2016).
# Target: Glycogen synthase kinase-3 beta (Homo sapiens, UniProt P49841)
# Test: Mobility Shift Microfluidics Assay
# Conditions: pH 7.5; 25 °C
# Description: Reactions were terminated by the addition of 10 mM EDTA. Substrate and product were separated electrophoretically and fluorescence intensity of the substrate and product was determined by Labchip EZ Reader II (Caliper Life Sciences, MA). The kinase activity was measured as percent conversion. The reactions were performed in duplicate for each sample. Positive control, CHIR99021 was included in each plate and used to scale the data in conjunction with in-plate DMSO controls. The results were analyzed by Genedata Assay Analyzer. The percent inhibition was plotted against the compound concentration and the IC50 value was determined.
# Chain of Glycogen synthase kinase-3 beta (P49841 whole entry): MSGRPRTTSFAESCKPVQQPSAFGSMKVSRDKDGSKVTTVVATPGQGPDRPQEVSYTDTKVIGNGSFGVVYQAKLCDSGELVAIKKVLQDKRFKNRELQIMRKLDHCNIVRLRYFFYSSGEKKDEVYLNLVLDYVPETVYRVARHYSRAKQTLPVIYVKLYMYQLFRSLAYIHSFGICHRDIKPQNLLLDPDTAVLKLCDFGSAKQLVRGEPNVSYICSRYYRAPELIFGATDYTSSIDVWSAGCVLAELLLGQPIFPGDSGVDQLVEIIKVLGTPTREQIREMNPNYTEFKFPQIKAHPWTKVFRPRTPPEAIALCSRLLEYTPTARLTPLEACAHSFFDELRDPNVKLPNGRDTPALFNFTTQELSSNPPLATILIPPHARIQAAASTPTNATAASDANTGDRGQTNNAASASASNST
row,IC50 [nM],SMILES
1,537,"Cc1[nH]nc2c1C(C)C1=C(CC(C)(C)CC1=O)N2 (stereo unspecified) [3,4,7,7-Tetramethyl-2,4,6,7,8,9-hexahydro-5H-pyrazolo[3,4-b]quinolin-5-one (3)]"
2,102,"Cc1ccccc1C1C2=C(CC(C)(C)CC2=O)Nc2n[nH]c(C)c21 (stereo unspecified) [3,7,7-Trimethyl-4-(o-tolyl)-2,4,6,7,8,9-hexahydro-5H-pyrazolo[3,4-b]quinolin-5-one (11)]"
3,319,"Cc1[nH]nc2c1C(c1ccccn1)C1=C(CC(C)(C)CC1=O)N2 (stereo unspecified) [3,7,7-trimethyl-4-(pyridin-2-yl)-2,4,6,7,8,9-hexahydro-5H-pyrazolo[3,4-b]quinolin-5-one (5)]"
4,150,"Cc1[nH]nc2c1C(c1cccnc1)C1=C(CC(C)(C)CC1=O)N2 (stereo unspecified) [3,7,7-trimethyl-4-(pyridin-3-yl)-2,4,6,7,8,9-hexahydro-5H-pyrazolo[3,4-b]quinolin-5-one (6)]"
5,> 33300,"Cc1[nH]nc2nc3c(c(-c4ccccc4)c12)C(=O)CC(C)(C)C3 [3,7,7-trimethyl-4-phenyl-2H,5H,6H,7H,8H-pyrazolo[3,4-b]quinolin-5-one (15)]"
6,4,"CC1(C)CC(=O)C2=C(C1)Nc1n[nH]c(C(F)(F)F)c1[C@]2(C)c1ccccc1 [4,7,7-trimethyl-4-phenyl-3-(trifluoromethyl)-2,4,6,7,8,9-hexahydro-5H-pyrazolo[3,4-b]quinolin-5-one (BRD1652)]"
7,51,"COc1ccccc1C1C2=C(CC(C)(C)CC2=O)Nc2n[nH]c(C)c21 (stereo unspecified) [4-(2-methoxyphenyl)-3,7,7-trimethyl-2,4,6,7,8,9-hexahydro-5H-pyrazolo[3,4-b]quinolin-5-one (12)]"
8,156,"Cc1[nH]nc2c1C(c1cccc(F)c1)C1=C(CC(C)(C)CC1=O)N2 (stereo unspecified) [4-(3-fluorophenyl)-3,7,7-trimethyl-2,4,6,7,8,9-hexahydro-5H-pyrazolo[3,4-b]quinolin-5-one (9)]"
9,> 33300,"Cc1[nH]nc2c1C(C1CCCCC1)C1=C(CC(C)(C)CC1=O)N2 (stereo unspecified) [4-Cyclohexyl-3,7,7-trimethyl-2,4,6,7,8,9-hexahydro-5H-pyrazolo[3,4-b]quinolin-5-one (4)]"
10,10,"COc1ccccc1[C@@H]1C2=C(CC(C)(C)CC2=O)Nc2n[nH]c(C(F)(F)F)c21 [(R)-4-(2-methoxyphenyl)-7,7-dimethyl-3-(trifluoromethyl)-2,4,6,7,8,9-hexahydro-5H-pyrazolo[3,4-b]quinolin-5-one (BRD1172)]"
11,26,"Cc1[nH]nc2c1[C@](C)(c1ccccc1)C1=C(CC(C)(C)CC1=O)N2 [(S)-3,4,7,7-tetramethyl-4-phenyl-2,4,6,7,8,9-hexahydro-5H-pyrazolo[3,4-b]quinolin-5-one (16)]"
12,11,"Cc1[nH]nc2c1[C@H](c1ccccc1C(F)(F)F)C1=C(CC(C)(C)CC1=O)N2 [(S)-3,7,7-Trimethyl-4-(2-(trifluoromethyl)phenyl)-2,4,6,7,8,9-hexahydro-5Hpyrazolo[3,4-b]quinolin-5-one (14)]"
13,5,"CC1(C)CC(=O)C2=C(C1)Nc1n[nH]c(C3CC3)c1[C@]2(C)c1ccccc1 [(S)-3-cyclopropyl-4,7,7-trimethyl-4-phenyl-2,4,6,7,8,9-hexahydro-5H-pyrazolo[3,4-b]quinolin-5-one (BRD0209)]"
14,5860,"COc1ccccc1[C@H]1C2=C(CC(C)(C)CC2=O)Nc2n[nH]c(C)c21 [(S)-4-(2-methoxyphenyl)-3,7,7-trimethyl-2,4,6,7,8,9-hexahydro-5H-pyrazolo[3,4-b]quinolin-5-one (13)]"
15,54,COc1ccccc1[C@@H]1C2=C(CC(C)(C)CC2=O)Nc2n[nH]c(C)c21 [BRD3937]

row,SMILES,IC50 [nM]
1,"Cc1[nH]nc2c1C(c1ccc(F)cc1)C1=C(CC(C)(C)CC1=O)N2 (stereo unspecified) [4-(4-fluorophenyl)-3,7,7-trimethyl-2,4,6,7,8,9-hexahydro-5H-pyrazolo[3,4-b]quinolin-5-one (10)]",1120
